The text below walks through data of patent publication US12209087B2, “AKT1 modulators” (Alterome Therapeutics, Inc., priority 2022, dated 2025).

Each structure is given as a SMILES string. Some results are limits rather than exact numbers.

T1 sequence (P31749 whole entry E17K): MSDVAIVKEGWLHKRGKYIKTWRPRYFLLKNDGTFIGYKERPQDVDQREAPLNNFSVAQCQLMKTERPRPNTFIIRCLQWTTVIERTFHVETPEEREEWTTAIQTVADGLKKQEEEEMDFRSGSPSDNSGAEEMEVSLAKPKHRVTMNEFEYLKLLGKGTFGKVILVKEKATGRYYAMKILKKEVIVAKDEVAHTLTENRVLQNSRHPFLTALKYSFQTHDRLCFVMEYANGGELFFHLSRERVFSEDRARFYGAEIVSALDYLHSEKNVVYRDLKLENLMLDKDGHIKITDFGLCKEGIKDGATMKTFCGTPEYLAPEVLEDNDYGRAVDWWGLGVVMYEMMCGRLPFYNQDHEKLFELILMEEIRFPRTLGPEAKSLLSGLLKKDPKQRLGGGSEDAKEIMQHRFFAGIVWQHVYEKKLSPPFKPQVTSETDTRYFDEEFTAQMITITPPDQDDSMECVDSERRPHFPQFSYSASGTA

The assay has as its target T1, full length AKT E17K (Homo sapiens, UniProt P31749, E17K).
T1 construct: host or cells: HEK-293 (ATCC CRL-1573)
In words: NanoBRET Target Engagement (TE) Assay. It counts as cell-based. As to conditions: competitive tracer displacement in living cells, read-out: AKT1 E17K IC50. From the text: The NanoBRET™ Target Engagement (TE) Intracellular Kinase Assays are based on the NanoBRET™ System (Promega Corporation), an energy transfer technique designed to measure molecular proximity in living cells. The NanoBRET™ TE Assays measure the apparent affinity of test compounds by competitive displacement of the NanoBRET™ tracer compound, which is a cell permeable molecule engineered to be reversibly bound to a NanoLuc® luciferase-kinase fusion expressed in cells. For compound screening, when a test compound binds to the selected kinase, the BRET signal is attenuated. […] All cells were evaluated for viability prior to transfection and optimization of the transfection was done prior to experimentation. […] Following transfection, cells were washed and resuspended in Opti-MEM. NanoBRET assays were performed in white, 384-well plates (Corning) at a density of […]. All example compounds were prepared as concentrated stock solutions in DMSO (Sigma-Aldrich). Compounds are dissolved in DMSO to make 10 mM stock solution. […] A Labcyte ECHO 550 compound dispenser was used to facilitate compound transfer directly to cells. Cells were equilibrated for 2 hr with energy transfer probes and example compound prior to BRET measurements. […] For target engagement analysis, the energy transfer probes were added to the cells at concentrations optimized for the target in question (AKT E17K). Following compound incubation, NanoBRET NanoGlo Substrate (Promega Cat #N157D) and Extracellular Nanoluc Inhibitor (Promega Cat #N235C) was added according to the manufacturer's recommended protocol, and luminescence was measured on Envision Reader (Perkin Elmer) Multimode Luminometer equipped with 450 nm BPfilter (donor) and 600 nm LPfilter (acceptor), using 0.5 s integration time. Milli-BRET units (mBU) are calculated by multiplying the raw BRET values by 1000. Apparent tracer affinity values (EC50) were determined using the sigmoidal dose-response (variable slope).
Competitive displacement data were then plotted and data were fit to determine the EC50 value for each example compound.
For orientation: In BRET a luciferase serves as donor, and the signal depends on an acceptor being close.
Broadly, the IC50 is the concentration that gives 50% inhibition. For `N#Cc1ncccc1C(=O)NC1CCN(Cc2ccc(-n3c(-c4cccnc4N)nc4cccnc43)cc2)CC1` [Example 27, N-(1-(4-(2-(2-Aminopyridin-3-yl)-3H-imidazo[4,5-b]pyridin-3-yl)benzyl)piperidin-4-yl)-2-cyanonicotinamide], the IC50 was in the range of 600 to 10000 nM.

`N#Cc1cccnc1C(=O)NC1CCN(Cc2ccc(-n3c(-c4cccnc4N)nc4cccnc43)cc2)CC1` [Example 28, N-(1-(4-(2-(2-Aminopyridin-3-yl)-3H-imidazo[4,5-b]pyridin-3-yl)benzyl)piperidin-4-yl)-3-cyanopicolinamide]: the IC50 is 600 to 10000 nM.

As for `N#Cc1ccncc1C(=O)NC1CCN(Cc2ccc(-n3c(-c4cccnc4N)nc4cccnc43)cc2)CC1` [Example 29, N-(1-(4-(2-(2-Aminopyridin-3-yl)-3H-imidazo[4,5-b]pyridin-3-yl)benzyl)piperidin-4-yl)-4-cyanonicotinamide], the IC50 lay in the range of 600 to 10000 nM.

As for `N#Cc1cccc(C(=O)NC2CCN(Cc3ccc(-n4c(-c5cccnc5N)nc5cccnc54)cc3)CC2)n1` [Example 30, N-(1-(4-(2-(2-Aminopyridin-3-yl)-3H-imidazo[4,5-b]pyridin-3-yl)benzyl)piperidin-4-yl)-6-cyanopicolinamide], the IC50 is 600 to 10000 nM.

In the case of `N#Cc1ccnc(C(=O)NC2CCN(Cc3ccc(-n4c(-c5cccnc5N)nc5cccnc54)cc3)CC2)c1` [Example 31, N-(1-(4-(2-(2-Aminopyridin-3-yl)-3H-imidazo[4,5-b]pyridin-3-yl)benzyl)piperidin-4-yl)-4-cyanopicolinamide], the IC50 lay in the range of 600 to 10000 nM.

Consider `N#Cc1nccc(C(=O)NC2CCN(Cc3ccc(-n4c(-c5cccnc5N)nc5cccnc54)cc3)CC2)n1` [Example 32, N-(1-(4-(2-(2-Aminopyridin-3-yl)-3H-imidazo[4,5-b]pyridin-3-yl)benzyl)piperidin-4-yl)-2-cyanopyrimidine-4-carboxamide], for which the IC50 fell in the range of 60 to 600 nM.

Take `N#Cc1cc(C(=O)NC2CCN(Cc3ccc(-n4c(-c5cccnc5N)nc5cccnc54)cc3)CC2)ncn1` [Example 33, N-(1-(4-(2-(2-Aminopyridin-3-yl)-3H-imidazo[4,5-b]pyridin-3-yl)benzyl)piperidin-4-yl)-6-cyanopyrimidine-4-carboxamide]: the IC50 was 600 to 10000 nM.

Take `N#Cc1nc2cc(C(=O)NC3CCN(Cc4ccc(-n5c(-c6cccnc6N)nc6cccnc65)cc4)CC3)ccc2s1` [Example 34, N-(1-(4-(2-(2-aminopyridin-3-yl)-3H-imidazo[4,5-b]pyridin-3-yl)benzyl)piperidin-4-yl)-2-cyanobenzo[d]thiazole-5-carboxamide]: the IC50 lay in the range of 60 to 600 nM.

`N#Cc1nc2cc(F)cc(C(=O)NC3CCN(Cc4ccc(-n5c(-c6cccnc6N)nc6cccnc65)cc4)CC3)c2s1` [Example 35, N-(1-(4-(2-(2-Aminopyridin-3-yl)-3H-imidazo[4,5-b]pyridin-3-yl)benzyl)piperidin-4-yl)-2-cyano-5-fluorobenzo[d]thiazole-7-carboxamide]: the IC50 was in the range of 60 to 600 nM.

With `N#Cc1cnccc1C(=O)NC1CCN(Cc2ccc(-n3c(-c4cccnc4N)nc4cccnc43)cc2)CC1` [Example 36, N-(1-(4-(2-(2-Aminopyridin-3-yl)-3H-imidazo[4,5-b]pyridin-3-yl)benzyl)piperidin-4-yl)-3-cyanoisonicotinamide], the half-inhibitory concentration (IC50) was in the range of 600 to 10000 nM.

As to `CC(=O)Nc1cccc(-c2ccc3nc(-c4cccnc4N)n(-c4ccc(CN5CCN(c6ccnc(C#N)c6)CC5)cc4)c3n2)c1` [Example 37, N-(3-(2-(2-Aminopyridin-3-yl)-3-(4-((4-(2-cyanopyridin-4-yl)piperazin-1-yl)methyl)phenyl)-3H-imidazo[4,5-b]pyridin-5-yl)phenyl)acetamide], the IC50 fell in the range of 15 to 60 nM.

Turning to `CC(=O)Nc1cccc(-c2ccc3nc(-c4cccnc4N)n(-c4ccc(CN5CCN(c6ccc(C#N)nc6)CC5)cc4)c3n2)c1` [Example 38, N-(3-(2-(2-Aminopyridin-3-yl)-3-(4-((4-(6-cyanopyridin-3-yl)piperazin-1-yl)methyl)phenyl)-3H-imidazo[4,5-b]pyridin-5-yl)phenyl)acetamide], the concentration for half-maximal inhibition (IC50) was 60 to 600 nM.

As for `CC(=O)Nc1cccc(-c2ccc3nc(-c4cccnc4N)n(-c4ccc(CN5CCN(c6cccc(C#N)n6)CC5)cc4)c3n2)c1` [Example 39, N-(3-(2-(2-Aminopyridin-3-yl)-3-(4-((4-(6-cyanopyridin-2-yl)piperazin-1-yl)methyl)phenyl)-3H-imidazo[4,5-b]pyridin-5-yl)phenyl)acetamide], the IC50 lay within 60 to 600 nM.

`CC(=O)Nc1cccc(-c2ccc3nc(-c4cccnc4N)n(-c4ccc(CN5CCN(c6cncc(C#N)n6)CC5)cc4)c3n2)c1` [Example 40, N-(3-(2-(2-aminopyridin-3-yl)-3-(4-((4-(6-cyanopyrazin-2-yl)piperazin-1-yl)methyl)phenyl)-3H-imidazo[4,5-b]pyridin-5-yl)phenyl)acetamide]: the IC50 was less than 15 nM.

On to `CC(=O)Nc1cccc(-c2ccc3nc(-c4cccnc4N)n(-c4ccc(CN5CCN(c6cc(C#N)ncn6)CC5)cc4)c3n2)c1` [Example 41, N-(3-(2-(2-Aminopyridin-3-yl)-3-(4-((4-(6-cyanopyrimidin-4-yl)piperazin-1-yl)methyl)phenyl)-3H-imidazo[4,5-b]pyridin-5-yl)phenyl)acetamide], for which the IC50 is less than 15 nM.

`CC(=O)Nc1cccc(-c2ccc3nc(-c4cccnc4N)n(-c4ccc(CN5CCN(c6cnc(C#N)nc6)CC5)cc4)c3n2)c1` [Example 42, N-(3-(2-(2-Aminopyridin-3-yl)-3-(4-((4-(2-cyanopyrimidin-5-yl)piperazin-1-yl)methyl)phenyl)-3H-imidazo[4,5-b]pyridin-5-yl)phenyl)acetamide]: the IC50 fell in the range of 15 to 60 nM.

As for `CC(=O)Nc1cccc(-c2ccc3nc(-c4cccnc4N)n(-c4ccc(CN5CCN(c6cnnc(C#N)c6)CC5)cc4)c3n2)c1` [Example 43, N-(3-(2-(2-Aminopyridin-3-yl)-3-(4-((4-(6-cyanopyridazin-4-yl)piperazin-1-yl)methyl)phenyl)-3H-imidazo[4,5-b]pyridin-5-yl)phenyl)acetamide], the IC50 is 60 to 600 nM.

As to `CC(=O)Nc1cccc(-c2ccc3nc(-c4cccnc4N)n(-c4ccc(CN5CCN(c6ccnc(C#N)n6)CC5)cc4)c3n2)c1` [Example 44, N-(3-(2-(2-Aminopyridin-3-yl)-3-(4-((4-(2-cyanopyrimidin-4-yl)piperazin-1-yl)methyl)phenyl)-3H-imidazo[4,5-b]pyridin-5-yl)phenyl)acetamide], the IC50 was less than 15 nM.

For `CC(=O)Nc1cccc(-c2ccc3nc(-c4cccnc4N)n(-c4ccc(CN5CCN(c6cc(C#N)cnn6)CC5)cc4)c3n2)c1` [Example 45, N-(3-(2-(2-Aminopyridin-3-yl)-3-(4-((4-(5-cyanopyridazin-3-yl)piperazin-1-yl)methyl)phenyl)-3H-imidazo[4,5-b]pyridin-5-yl)phenyl)acetamide], the IC50 lay in the range of 60 to 600 nM.

With `CC(=O)Nc1cccc(-c2ccc3nc(-c4cccnc4N)n(-c4ccc(CN5CCN(c6nccc(C#N)n6)CC5)cc4)c3n2)c1` [Example 46, N-(3-(2-(2-Aminopyridin-3-yl)-3-(4-((4-(4-cyanopyrimidin-2-yl)piperazin-1-yl)methyl)phenyl)-3H-imidazo[4,5-b]pyridin-5-yl)phenyl)acetamide], the IC50 is less than 15 nM.
